“And” between values parts separate entries of the source, which are not always exact repeats. Equal entries are not always repeated. “Also recorded” adds a separate entry of the source.
Legend:
R159H VCP = biological target: T1, R159H VCP (Mus musculus, UniProt Q01853, R159H); assay: MESG-PNP ATPase assay, recombinant R159H VCP; assay type: biochemical; settings: VCP Mutation R159H; replicate values
T1 construct: in the full-length recombinant VCP; His (N); made in house; host or cells: Escherichia coli BL21-CodonPlus (DE3)-RIL
T1 sequence (Q01853 whole entry R159H): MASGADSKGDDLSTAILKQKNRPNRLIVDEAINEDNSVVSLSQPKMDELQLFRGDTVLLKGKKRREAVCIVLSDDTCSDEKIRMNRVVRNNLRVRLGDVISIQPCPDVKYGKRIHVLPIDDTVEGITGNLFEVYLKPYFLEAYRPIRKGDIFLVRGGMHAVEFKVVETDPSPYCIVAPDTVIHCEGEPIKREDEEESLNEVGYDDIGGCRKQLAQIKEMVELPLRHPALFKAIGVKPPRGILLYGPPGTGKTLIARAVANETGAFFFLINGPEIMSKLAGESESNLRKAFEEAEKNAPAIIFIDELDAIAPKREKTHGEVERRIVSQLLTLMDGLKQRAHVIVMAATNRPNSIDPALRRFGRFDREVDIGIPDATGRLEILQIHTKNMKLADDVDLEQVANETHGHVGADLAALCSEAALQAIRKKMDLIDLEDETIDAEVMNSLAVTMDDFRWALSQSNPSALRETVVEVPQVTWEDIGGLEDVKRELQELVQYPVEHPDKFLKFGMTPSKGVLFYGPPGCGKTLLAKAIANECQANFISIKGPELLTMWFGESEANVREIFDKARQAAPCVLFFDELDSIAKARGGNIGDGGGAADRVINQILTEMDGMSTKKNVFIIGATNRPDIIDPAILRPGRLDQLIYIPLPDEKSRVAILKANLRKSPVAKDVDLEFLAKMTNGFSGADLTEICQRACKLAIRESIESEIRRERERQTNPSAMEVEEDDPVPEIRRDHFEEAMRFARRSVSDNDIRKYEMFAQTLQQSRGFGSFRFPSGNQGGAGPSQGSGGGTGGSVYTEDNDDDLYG
Method: (§1) All other experiments were performed using the EnzCheck phosphatase assay kit (Molecular Probes). ATPase activity was measured in a 96-well flat bottom plate (Thermo Fisher Scientific). 50 nM VCP was incubated in 100 μL ATPase buffer with 2% DMSO with 25 μM compound and various ATP concentrations. The absorbance at 360 ± 5 nm was measured for more than 15 minutes at 25°C. Phosphate release was quantified based on a phosphate standard curve performed on the same plate. Initial enzyme velocity was determined by fitting the linear portion of the data to a linear regression model.
(§2) Figure S8. VCP activators variable effect on ATPase activity of MSP associated mutations in recombinant VCP. ATPase activity of 50 nM recombinant VCP protein was measured using an MESG-PNP assay upon treatment with 25 μM compound versus 2% DMSO control at 1mM ATP for WT (also shown in Fig. 5c), A232E, R155H, and R159H (n=3 with 3 technical replicated per experiment; points are expressed as beta ± SE, linear effects model: *P<0.05,**P<0.01; ***P<0.001; ****P<0.0001).

luciferase = assay: Luciferase counter assay: Kinase-Glo with 62.5 μM ATP without recombinant VCP; assay type: biochemical; settings: for measured ATP consumed (nmol) without VCP: replicate values
Method: (§3) Experiments with varied activator concentration and screening were measured using the Kinase-Glo Luminescent Kinase Assay (Promega). Reactions were incubated at 25°C for 1 hour then reduced to 4°C in a thermocycler consisting of 50 nM of recombinant VCP with or without 50 nM UFD1/NPLOC4 in 50 uL ATPase buffer (25 mM HEPES, pH 7.5, 100 mM NaCl, 10 mM MgCl2) at 2% DMSO with 62.5 μM ATP and a range of activator concentrations (Gibco, Sigma-Aldrich). Equal volumes of reaction and Kinase-Glo reagent were incubated for 20 minutes at room temperature in a 96 well white flat bottom plate (Corning). Luminescence was measured in a microplate reader (Spark 20M, Tecan).
(A-D) Measured ATP as determined by a Kinase-Glo assay of 62.5μM ATP in the presence of increasing concentrations of compound without recombinant VCP present. (for all panels: n=3 with 4 technical replicates per experiment, points are expressed as beta ± SE, linear mixed effects model, P>0.05 for each […]
(1 picture or pasted object on this page, not shown here)

recombinant WT VCP [1] = biological target: T2, recombinant WT VCP (Mus musculus, UniProt Q01853); assay: MESG-PNP (EnzCheck) phosphate release ATPase assay, WT VCP; assay type: biochemical; settings: for ATPase activity v0/ET: 25 μM compound, replicate experiments
T2 construct: in the full-length recombinant VCP; His (N); made in house; host or cells: Escherichia coli BL21-CodonPlus (DE3)-RIL
T2 sequence (Q01853 whole entry): as the sequence (Q01853 whole entry R159H) above, with H159R counted along it
Method: as §1
(§4) Experiments with varied compound concentration were fit to a 3-parameter dose curve with asymmetric profile likelihood 95% confidence intervals in GraphPad Prism 9 (GraphPad). Experiments with varied ATP concentration were fit to a Michaelis-Menten model with asymmetric profile likelihood 95% confidence intervals. Significance was determined for experiments with fixed compound or fixed ATP concentration using a linear mixed-effects model.

WT VCP + Ufd1/Nploc4 = biological target: T3, WT VCP + Ufd1/Nploc4 (Mus musculus, UniProt Q01853); assay: Kinase-Glo ATPase assay, WT VCP with UFD1/NPLOC4 (UN); assay type: biochemical; settings: for ATP consumed: WT VCP with UN
T3 construct: in the full-length recombinant VCP; His (N); made in house; host or cells: E. coli (VCP: BL21-CodonPlus (DE3)-RIL; UFD1 and NPLOC4: E. coli (DE3), purified by the MD Anderson core)
T3 sequence (Q01853 whole entry): as the sequence (Q01853 whole entry R159H) above, with H159R counted along it
T3 sequence (Q92890 whole entry partner): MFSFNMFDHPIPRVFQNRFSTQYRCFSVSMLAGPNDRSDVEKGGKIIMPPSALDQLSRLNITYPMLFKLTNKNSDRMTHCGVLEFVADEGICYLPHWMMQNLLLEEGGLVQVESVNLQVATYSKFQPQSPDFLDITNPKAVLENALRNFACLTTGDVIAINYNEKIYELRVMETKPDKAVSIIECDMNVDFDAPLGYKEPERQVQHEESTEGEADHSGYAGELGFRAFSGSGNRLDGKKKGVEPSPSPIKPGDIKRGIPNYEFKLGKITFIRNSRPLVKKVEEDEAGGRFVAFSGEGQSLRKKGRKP
T3 sequence (Q8TAT6 whole entry partner): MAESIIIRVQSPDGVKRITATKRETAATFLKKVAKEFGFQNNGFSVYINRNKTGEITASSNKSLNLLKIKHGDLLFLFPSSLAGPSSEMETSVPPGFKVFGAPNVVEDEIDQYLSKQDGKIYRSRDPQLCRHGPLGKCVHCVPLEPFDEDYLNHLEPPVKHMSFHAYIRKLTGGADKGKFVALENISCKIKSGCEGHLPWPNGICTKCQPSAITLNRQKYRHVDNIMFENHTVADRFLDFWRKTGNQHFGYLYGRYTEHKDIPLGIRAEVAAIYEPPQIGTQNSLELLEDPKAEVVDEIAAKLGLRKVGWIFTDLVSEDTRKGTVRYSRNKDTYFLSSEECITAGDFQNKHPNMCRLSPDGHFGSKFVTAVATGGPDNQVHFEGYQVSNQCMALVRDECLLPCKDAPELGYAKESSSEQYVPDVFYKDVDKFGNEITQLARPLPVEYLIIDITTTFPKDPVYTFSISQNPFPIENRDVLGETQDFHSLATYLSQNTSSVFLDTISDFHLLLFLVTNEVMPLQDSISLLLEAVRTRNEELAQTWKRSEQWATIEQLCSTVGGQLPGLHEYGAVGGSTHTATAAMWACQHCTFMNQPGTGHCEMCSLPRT
Method: as §3, §4

26S proteasome = 26S proteasome activity, Suc-LLVY-AMC fluorescence; assay type: biochemical, human; settings: 25 μM compound, versus 1% DMSO
Method: 26S proteasome and substrate suc-LLVY-AMC were purchased (LifeSensors, Inc.). Fluorescence was measured in a microplate reader using a 96-well optical bottom black plate (Thermo Fisher Scientific). […] 26S proteasome was incubated in 100 μL proteasome buffer (20 mM HEPES, pH 7.5, 0.5 mM EDTA, 0.05% Triton-X) with 100 μM suc-LLVY-AMC, 1 mM ATP, and 25 μM compound or 1% DMSO. Fluorescence was measured at excitation 380 ± 10nm and emission 460 ± 10nm for more than 15 minutes at 37°C. Initial velocity was determined by fitting the linear portion of the data to a linear regression model. Significance was determined for using a linear mixed-effects model.

[2] = test system: WT HeLa cells expressing GFP-TDP-4FL; assay: Flow cytometry of GFP-TDP-4FL integrated fluorescence, WT HeLa; assay type: cell-based; settings: for Integrated Fluorescence WT (Normalized to CHX): replicate values
Method: Drug treatments were performed on neurons 7 days after lentiviral transduction and 14 days after neuronal induction. HeLa cells were collected using trypsin and pelleted at 1000g for 3 minutes. Cell pellets were resuspended in colorless DMEM (Invitrogen) supplemented with 2% FBS and filtered through a BD tube with cell strainer (BD Biosciences) for flow cytometry analysis on LSR II (BD Biosciences). Data analysis was performed on FlowJo v10 software. Integrated fluorescence intensity was determined by multiplying percent positive GFP and GFP median fluorescence values.

recombinant WT VCP [3] = biological target: T2, recombinant WT VCP; assay: Kinase-Glo ATPase assay, recombinant WT VCP; assay type: biochemical; settings: for ATP consumed: WT VCP no UN
Method: as §3, §4

R155H VCP = biological target: T4, R155H VCP (Mus musculus, UniProt Q01853, R155H); assay: MESG-PNP ATPase assay, recombinant R155H VCP; assay type: biochemical; settings: VCP Mutation R155H; replicate values
T4 construct: in the full-length recombinant VCP; His (N); made in house; host or cells: Escherichia coli BL21-CodonPlus (DE3)-RIL
T4 sequence (Q01853 whole entry R155H): as the sequence (Q01853 whole entry R159H) above, with R155H, H159R counted along it
Method: as §1, §2

A232E VCP = biological target: T5, A232E VCP (Mus musculus, UniProt Q01853, A232E); assay: MESG-PNP ATPase assay, recombinant A232E VCP; assay type: biochemical; settings: VCP Mutation A232E; replicate values
T5 construct: in the full-length recombinant VCP; His (N); made in house; host or cells: Escherichia coli BL21-CodonPlus (DE3)-RIL
T5 sequence (Q01853 whole entry A232E): as the sequence (Q01853 whole entry R159H) above, with H159R, A232E counted along it
Method: as §1, §2

SMILES: O=C(OCCN(C1=NS(=O)(=O)c2ccccc21)c1ccc(Cl)cc1)c1ccco1 [UP163]
- ATPase activity, nmol Pi / nmol VCP / s (R159H VCP): 0.812 nmol Pi / nmol VCP / s and 0.873 nmol Pi / nmol VCP / s and 0.726 nmol Pi / nmol VCP / s
- luciferase activity (measured ATP without VCP) (luciferase; 62.5 μM ATP, increasing concentrations of compound): did not inhibit luciferase activity
- measured ATP consumed (nmol) without VCP (luciferase; compound 6.25 μM): 3.139 nmol and 3.185 nmol and 3.132 nmol and 3.341 nmol and 3.220 nmol and 3.273 nmol and 3.147 nmol and 3.064 nmol and 3.275 nmol and 3.208 nmol and 3.040 nmol and 3.045 nmol
- measured ATP consumed (nmol) without VCP (luciferase; compound 12.5 μM): 3.118 nmol and 3.105 nmol and 3.142 nmol and 3.139 nmol and 3.279 nmol and 3.429 nmol and 3.221 nmol and 3.237 nmol and 3.278 nmol and 3.379 nmol and 3.331 nmol and 3.029 nmol
- measured ATP consumed (nmol) without VCP (luciferase; compound 25 μM): 3.141 nmol and 3.208 nmol and 3.280 nmol and 3.310 nmol and 3.135 nmol and 3.015 nmol and 3.257 nmol and 3.266 nmol and 3.329 nmol and 3.083 nmol and 3.153 nmol
- measured ATP consumed (nmol) without VCP (luciferase; compound 50 μM): 3.191 nmol and 3.073 nmol and 3.250 nmol and 3.386 nmol and 3.272 nmol and 3.113 nmol and 3.202 nmol and 3.171 nmol and 3.209 nmol and 3.373 nmol and 3.530 nmol and 3.028 nmol
- measured ATP consumed (nmol) without VCP (luciferase; compound 100 μM): 3.232 nmol and 3.235 nmol and 3.017 nmol and 3.209 nmol and 3.245 nmol and 3.024 nmol and 3.264 nmol and 3.329 nmol and 3.427 nmol and 3.000 nmol and 3.076 nmol
- measured ATP consumed (nmol) without VCP (luciferase; compound 200 μM): 3.190 nmol (2×) and 3.291 nmol and 3.314 nmol and 3.330 nmol and 3.165 nmol and 3.125 nmol and 3.456 nmol and 3.010 nmol and 3.038 nmol and 3.261 nmol and 3.272 nmol
- kcat (nmol Pi / nmol VCP / s) (95% CI) (recombinant WT VCP [1]; 25 μM activator): 0.366 (0.335, 0.401) nmol Pi / nmol VCP / s
- increase in kcat (recombinant WT VCP [1]; 25 μM activator, versus DMSO): more than 50%
- ATPase activity v0/ET (recombinant WT VCP [1]; [ATP] 62.5 μM): 0.201 nmol Pi / nmol VCP / s and 0.212 nmol Pi / nmol VCP / s and 0.198 nmol Pi / nmol VCP / s
- ATPase activity v0/ET (recombinant WT VCP [1]; [ATP] 125 μM): 0.260 nmol Pi / nmol VCP / s and 0.250 nmol Pi / nmol VCP / s and 0.255 nmol Pi / nmol VCP / s
- ATPase activity v0/ET (recombinant WT VCP [1]; [ATP] 250 μM): 0.300 nmol Pi / nmol VCP / s and 0.288 nmol Pi / nmol VCP / s and 0.278 nmol Pi / nmol VCP / s
- ATPase activity v0/ET (recombinant WT VCP [1]; [ATP] 500 μM): 0.335 nmol Pi / nmol VCP / s and 0.312 nmol Pi / nmol VCP / s and 0.331 nmol Pi / nmol VCP / s
- ATPase activity v0/ET (recombinant WT VCP [1]; [ATP] 1000 μM): 0.366 nmol Pi / nmol VCP / s and 0.351 nmol Pi / nmol VCP / s and 0.360 nmol Pi / nmol VCP / s
- change in EC50 with UN compared to without UN (WT VCP + Ufd1/Nploc4): no change in EC50
- change in maximum percent activity with UN compared to without UN (WT VCP + Ufd1/Nploc4): significantly decreased
- EC50 (WT VCP + Ufd1/Nploc4; WT VCP + Ufd1/Nploc4, 1:1 molar ratio): 8.9 µM
- ATP consumed (WT VCP + Ufd1/Nploc4; 1.56 μM compound): 1.198 nmol and 1.183 nmol and 1.402 nmol
- ATP consumed (WT VCP + Ufd1/Nploc4; 3.13 μM compound): 1.366 nmol and 1.295 nmol and 1.519 nmol
- ATP consumed (WT VCP + Ufd1/Nploc4; 6.25 μM compound): 1.504 nmol and 1.416 nmol and 1.656 nmol
- ATP consumed (WT VCP + Ufd1/Nploc4; 12.5 μM compound): 1.666 nmol and 1.564 nmol and 1.799 nmol
- ATP consumed (WT VCP + Ufd1/Nploc4; 25 μM compound): 1.783 nmol and 1.641 nmol and 1.890 nmol
- ATP consumed (WT VCP + Ufd1/Nploc4; 50 μM compound): 1.844 nmol and 1.710 nmol and 1.941 nmol
- ATP consumed (WT VCP + Ufd1/Nploc4; 100 μM compound): 1.839 nmol and 1.775 nmol and 1.995 nmol
- ATP consumed (WT VCP + Ufd1/Nploc4; 200 μM compound): 1.798 nmol and 1.691 nmol and 2.001 nmol
- % activity of 26S proteasome (26S proteasome): 101.6% and 88.7% and 86.5% and 112.7% and 93.3% and 91.5%
- Integrated Fluorescence WT (Normalized to CHX) ([2]; 5μM compound with CHX): 1.026 and 0.947 and 1.013 and 0.859 and 0.810
- Integrated Fluorescence WT (Normalized to CHX) ([2]; 20μM compound with CHX): 0.921 and 1.001 and 0.939 and 1.006 and 0.777 and 0.710
- clearance of GFP-TDP-4FL aggregates (integrated fluorescence) ([2]; MG132, then CHX with 5 or 20 μM activator): enhances clearance of TDP-4FL inclusions; also recorded: slightly enhanced clearance
- EC50 (recombinant WT VCP [3]; EC50 (μM) (95% CI), WT VCP without UN, 50 nM VCP, 62.5 μM ATP, 2% DMSO): 9 µM
- ATP consumed (recombinant WT VCP [3]; 1.56 μM compound): 0.996 nmol and 1.192 nmol and 1.605 nmol
- ATP consumed (recombinant WT VCP [3]; 3.13 μM compound): 0.935 nmol and 1.312 nmol and 1.332 nmol
- ATP consumed (recombinant WT VCP [3]; 6.25 μM compound): 1.040 nmol and 1.494 nmol and 1.616 nmol
- ATP consumed (recombinant WT VCP [3]; 12.5 μM compound): 1.105 nmol and 1.570 nmol and 1.588 nmol
- ATP consumed (recombinant WT VCP [3]; 25 μM compound): 1.206 nmol and 1.717 nmol and 1.792 nmol
- ATP consumed (recombinant WT VCP [3]; 50 μM compound): 1.416 nmol and 2.232 nmol and 2.160 nmol
- ATP consumed (recombinant WT VCP [3]; 100 μM compound): 1.546 nmol and 2.072 nmol and 2.521 nmol
- ATP consumed (recombinant WT VCP [3]; 200 μM compound): 1.557 nmol and 2.138 nmol and 2.227 nmol
- recombinant WT VCP ATPase activity (recombinant WT VCP [3]; in vitro validation of 106 screen hits): significantly increased
- increase of VCP activity (recombinant WT VCP [3]; maximum, WT VCP without UN): 104%
- ATPase activity, nmol Pi / nmol VCP / s (R155H VCP): 0.759 nmol Pi / nmol VCP / s and 0.647 nmol Pi / nmol VCP / s and 0.706 nmol Pi / nmol VCP / s
- ATPase activity, nmol Pi / nmol VCP / s (A232E VCP): 0.830 nmol Pi / nmol VCP / s and 0.637 nmol Pi / nmol VCP / s and 0.764 nmol Pi / nmol VCP / s
